From ChEMBL document CHEMBL1140860, “Synthesis and evaluation of dihydroartemisinin and dihydroartemisitene acetal dimers showing anticancer and antiprotozoal activity” (Bioorg Med Chem, 2009)

Assays:
[1] = Cytotoxicity against african green monkey Vero cells after 48 hrs by neutral red assay; assay type: cell-based; conditions: chlorocebus sabaeus, read-out: TC50
Plasmodium falciparum [2] = experiment: Antimalarial activity after 72 hrs against chloroquine-sensitive Plasmodium falciparum D6 infected in erythrocytes by LDH assay; assay type: functional, organism-based; conditions: D6, 72 h
[3] = Selectivity index, ratio of TC50 for african green monkey (Cercopithecus aethiops) Vero cells to IC50 for chloroquine-resistant Plasmodium falciparum W2; assay type: toxicity, cell-based
Plasmodium falciparum [4] = experiment: Antimalarial activity after 72 hrs against chloroquine-resistant Plasmodium falciparum W2 infected erythrocytes by LDH assay; assay type: functional, organism-based; conditions: W2, 72 h
[5] = Selectivity index, ratio of TC50 for african green monkey (Cercopithecus aethiops) Vero cells to IC50 for chloroquine-sensitive Plasmodium falciparum D6; assay type: toxicity, cell-based
SK-OV-3 = experiment: Growth inhibition of human SKOV3 cells after 48 hrs by sulforhodamine B assay; assay type: functional; conditions: SK-OV-3, 48 h
OVCAR-8 = experiment: Growth inhibition of human OVCAR8 cells after 48 hrs by sulforhodamine B assay; assay type: functional; conditions: OVCAR-8, 48 h
SNB-19 = experiment: Growth inhibition of human SNB19 cells after 48 hrs by sulforhodamine B assay; assay type: functional; conditions: SNB-19, 48 h
HOP-92 = experiment: Growth inhibition of human HOP92 cells after 48 hrs by sulforhodamine B assay; assay type: functional; conditions: HOP-92, 48 h
MDA-MB-231 = experiment: Growth inhibition of human MDA-MB-231 cells after 48 hrs by sulforhodamine B assay; assay type: functional; conditions: MDA-MB-231, 48 h
OVCAR-5 = experiment: Growth inhibition of human OVCAR5 cells after 48 hrs by sulforhodamine B assay; assay type: functional; conditions: OVCAR-5, 48 h
UO-31 = experiment: Growth inhibition of human UO31 cells after 48 hrs by sulforhodamine B assay; assay type: functional; conditions: UO-31, 48 h
RXF 393 = experiment: Growth inhibition of human RXF393 cells after 48 hrs by sulforhodamine B assay; assay type: functional; conditions: RXF 393, 48 h
MDA-N = experiment: Growth inhibition of human MDA-N cells after 48 hrs by sulforhodamine B assay; assay type: functional
UACC-62 = experiment: Growth inhibition of human UACC62 cells after 48 hrs by sulforhodamine B assay; assay type: functional; conditions: UACC-62, 48 h
COLO 205 = experiment: Growth inhibition of human COLO205 cells after 48 hrs by sulforhodamine B assay; assay type: functional; conditions: COLO 205, 48 h
ACHN = experiment: Growth inhibition of human ACHN cells after 48 hrs by sulforhodamine B assay; assay type: functional
NCI-H322M = experiment: Growth inhibition of human NCI-H322M cells after 48 hrs by sulforhodamine B assay; assay type: functional
NCI-H226 = experiment: Growth inhibition of human NCI-H226 cells after 48 hrs by sulforhodamine B assay; assay type: functional; conditions: NCI-H226, 48 h
LOX IMVI = experiment: Growth inhibition of human LOXIMVI cells after 48 hrs by sulforhodamine B assay; assay type: functional
786-0 = experiment: Growth inhibition of human 786-0 cells after 48 hrs by sulforhodamine B assay; assay type: functional; conditions: 786-0, 48 h
HT-29 = experiment: Growth inhibition of human HT-29 cells after 48 hrs by sulforhodamine B assay; assay type: functional; conditions: HT-29, 48 h
IGROV-1 = experiment: Growth inhibition of human IGROV1 cells after 48 hrs by sulforhodamine B assay; assay type: functional; conditions: IGROV-1, 48 h
EKVX = experiment: Growth inhibition of human EKVX cells after 48 hrs by sulforhodamine B assay; assay type: functional
NCI-H522 = experiment: Growth inhibition of human NCI-H522 cells after 48 hrs by sulforhodamine B assay; assay type: functional; conditions: NCI-H522, 48 h
MCF7 = experiment: Growth inhibition of human MCF7 cells after 48 hrs by sulforhodamine B assay; assay type: functional; conditions: MCF7, 48 h
MDA-MB-435 = experiment: Growth inhibition of human MDA-MB-435 cells after 48 hrs by sulforhodamine B assay; assay type: functional; conditions: MDA-MB-435, 48 h
KM12 = experiment: Growth inhibition of human KM12 cells after 48 hrs by sulforhodamine B assay; assay type: functional; conditions: KM12, 48 h
HCT-116 = experiment: Growth inhibition of human HCT116 cells after 48 hrs by sulforhodamine B assay; assay type: functional; conditions: HCT-116, 48 h
NCI-H23 = experiment: Growth inhibition of human NCI-H23 cells after 48 hrs by sulforhodamine B assay; assay type: functional; conditions: NCI-H23, 48 h
SNB-75 = experiment: Growth inhibition of human SNB75 cells after 48 hrs by sulforhodamine B assay; assay type: functional; conditions: SNB-75, 48 h
U-251 = experiment: Growth inhibition of human U251 cells after 48 hrs by sulforhodamine B assay; assay type: functional; conditions: U-251, 48 h
A549 = experiment: Growth inhibition of human A549 cells after 48 hrs by sulforhodamine B assay; assay type: functional; conditions: A549, 48 h
MOLT-4 = experiment: Growth inhibition of human MOLT4 cells after 48 hrs by sulforhodamine B assay; assay type: functional; conditions: MOLT-4, 48 h
K562 = experiment: Growth inhibition of human K562 cells after 48 hrs by sulforhodamine B assay; assay type: functional; conditions: K562, 48 h
TK-10 = experiment: Growth inhibition of human TK10 cells after 48 hrs by sulforhodamine B assay; assay type: functional; conditions: TK-10, 48 h
SF-539 = experiment: Growth inhibition of human SF539 cells after 48 hrs by sulforhodamine B assay; assay type: functional; conditions: SF-539, 48 h
HOP-62 = experiment: Growth inhibition of human HOP62 cells after 48 hrs by sulforhodamine B assay; assay type: functional; conditions: HOP-62, 48 h
CAKI-1 = experiment: Growth inhibition of human Caki1 cells after 48 hrs by sulforhodamine B assay; assay type: functional; conditions: CAKI-1, 48 h
[6] = Growth inhibition of human Hs 578T cells after 48 hrs by sulforhodamine B assay; assay type: functional
T47D = experiment: Growth inhibition of human T47D cells after 48 hrs by sulforhodamine B assay; assay type: functional
M14 = experiment: Growth inhibition of human M14 cells after 48 hrs by sulforhodamine B assay; assay type: functional; conditions: M14, 48 h
SF-295 = experiment: Growth inhibition of human SF295 cells after 48 hrs by sulforhodamine B assay; assay type: functional; conditions: SF-295, 48 h
SN12C = experiment: Growth inhibition of human SN12C cells after 48 hrs by sulforhodamine B assay; assay type: functional
HCC 2998 = experiment: Growth inhibition of human HCC2998 cells after 48 hrs by sulforhodamine B assay; assay type: functional; conditions: HCC 2998, 48 h
HCT-15 = experiment: Growth inhibition of human HCT15 cells after 48 hrs by sulforhodamine B assay; assay type: functional; conditions: HCT-15, 48 h
SW-620 = experiment: Growth inhibition of human SW620 cells after 48 hrs by sulforhodamine B assay; assay type: functional; conditions: SW-620, 48 h
A498 = experiment: Growth inhibition of human A498 cells after 48 hrs by sulforhodamine B assay; assay type: functional; conditions: A498, 48 h
BT-549 = experiment: Growth inhibition of human BT549 cells after 48 hrs by sulforhodamine B assay; assay type: functional; conditions: BT-549, 48 h
SK-MEL-5 = experiment: Growth inhibition of human SK-MEL-5 cells after 48 hrs by sulforhodamine B assay; assay type: functional; conditions: SK-MEL-5, 48 h
NCI-H460 = experiment: Growth inhibition of human NCI-H460 cells after 48 hrs by sulforhodamine B assay; assay type: functional; conditions: NCI-H460, 48 h
PC-3 = experiment: Growth inhibition of human PC3 cells after 48 hrs by sulforhodamine B assay; assay type: functional; conditions: PC-3, 48 h
OVCAR-3 = experiment: Growth inhibition of human OVCAR-3 cells after 48 hrs by sulforhodamine B assay; assay type: functional; conditions: OVCAR-3, 48 h
UACC-257 = experiment: Growth inhibition of human UACC257 cells after 48 hrs by sulforhodamine B assay; assay type: functional; conditions: UACC-257, 48 h
NCI/ADR-RES = experiment: Growth inhibition of human NCI/ADR-RES cells after 48 hrs by sulforhodamine B assay; assay type: functional
[7] = Growth inhibition of human […] cells after 48 hrs by sulforhodamine B assay; assay type: functional
OVCAR-4 = experiment: Growth inhibition of human OVCAR4 cells after 48 hrs by sulforhodamine B assay; assay type: functional; conditions: OVCAR-4, 48 h
Malme-3M = experiment: Growth inhibition of human MALME-3M cells after 48 hrs by sulforhodamine B assay; assay type: functional
SF-268 = experiment: Growth inhibition of human SF268 cells after 48 hrs by sulforhodamine B assay; assay type: functional; conditions: SF-268, 48 h
SK-MEL-2 = experiment: Growth inhibition of human SK-MEL-2 cells after 48 hrs by sulforhodamine B assay; assay type: functional; conditions: SK-MEL-2, 48 h
CCRF-CEM = experiment: Growth inhibition of human CCRF-CEM cells after 48 hrs by sulforhodamine B assay; assay type: functional
HL-60 = experiment: Growth inhibition of human HL-60(TB) cells after 48 hrs by sulforhodamine B assay; assay type: functional; conditions: HL-60, 48 h
SK-MEL-28 = experiment: Growth inhibition of human SK-MEL-28 cells after 48 hrs by sulforhodamine B assay; assay type: functional; conditions: SK-MEL-28, 48 h

SMILES: C[C@H]1[C@H](O[C@H]2O[C@@H]3O[C@@]4(C)CC[C@H]5[C@H](C)CC[C@@H]([C@H]2C)[C@@]35OO4)O[C@@H]2O[C@@]3(C)CC[C@H]4[C@H](C)CC[C@@H]1[C@@]24OO3
- CC50 at 48 h [1]: > 864000 nM
- IC50 (Plasmodium falciparum [2]): 23600 nM
- selectivity ratio [3]: > 34
- IC50 (Plasmodium falciparum [4]): 25400 nM
- selectivity ratio [5]: > 37

SMILES: C[C@H]1[C@@H](O[C@H]2O[C@@H]3O[C@@]4(C)CC[C@H]5[C@H](C)CC[C@@H]([C@H]2C)[C@@]35OO4)O[C@@H]2O[C@@]3(C)CC[C@H]4[C@H](C)CC[C@@H]1[C@@]24OO3
- CC50 at 48 h [1]: > 864000 nM
- IC50 (Plasmodium falciparum [2]): 11800 nM
- selectivity ratio [3]: > 125
- IC50 (Plasmodium falciparum [4]): 6900 nM
- selectivity ratio [5]: > 73

SMILES: C[C@H]1[C@@H](O[C@@H](C)CO[C@H]2O[C@@H]3O[C@@]4(C)CC[C@H]5[C@H](C)CC[C@@H]([C@H]2C)[C@@]35OO4)O[C@@H]2O[C@@]3(C)CC[C@H]4[C@H](C)CC[C@@H]1[C@@]24OO3
- GI50 (SK-OV-3): 23600 nM
- GI50 (OVCAR-8): 34 nM
- GI50 (SNB-19): 104 nM
- GI50 (HOP-92): 63 nM
- GI50 (MDA-MB-231): 80 nM
- GI50 (OVCAR-5): 27 nM
- GI50 (UO-31): 31 nM
- GI50 (RXF 393): < 10 nM
- GI50 (MDA-N): 42 nM
- GI50 (UACC-62): 16 nM
- GI50 (COLO 205): 12 nM
- GI50 (ACHN): 33 nM
- GI50 (NCI-H322M): 88 nM
- GI50 (NCI-H226): 226 nM
- GI50 (LOX IMVI): 179 nM
- GI50 (786-0): 48 nM
- GI50 (HT-29): 12 nM
- GI50 (IGROV-1): 130 nM
- GI50 (EKVX): 37 nM
- GI50 (NCI-H522): 54 nM
- CC50 at 48 h [1]: > 78000 nM
- GI50 (MCF7): < 10 nM
- GI50 (MDA-MB-435): 27 nM
- GI50 (KM12): < 10 nM
- GI50 (HCT-116): < 10 nM
- GI50 (NCI-H23): 37 nM
- GI50 (SNB-75): 332 nM
- GI50 (U-251): < 10 nM
- GI50 (A549): 18 nM
- GI50 (MOLT-4): < 10 nM
- GI50 (K562): < 10 nM
- GI50 (TK-10): 17900 nM
- IC50 (Plasmodium falciparum [2]): 3800 nM
- GI50 (SF-539): 39 nM
- GI50 (HOP-62): 15900 nM
- GI50 (CAKI-1): 376 nM
- GI50 [6]: 21 nM
- GI50 (T47D): < 10 nM
- selectivity ratio [3]: > 15
- GI50 (M14): 18 nM
- GI50 (SF-295): 92 nM
- GI50 (SN12C): 25 nM
- GI50 (HCC 2998): 49 nM
- GI50 (HCT-15): < 10 nM
- GI50 (SW-620): < 10 nM
- GI50 (A498): 409 nM
- GI50 (BT-549): 58 nM
- GI50 (SK-MEL-5): 29 nM
- GI50 (NCI-H460): 27 nM
- GI50 (PC-3): 9 nM
- GI50 (OVCAR-3): 46 nM
- GI50 (UACC-257): 21 nM
- GI50 (NCI/ADR-RES): 264 nM
- GI50 [7]: < 10 nM
- GI50 (OVCAR-4): 72 nM
- GI50 (Malme-3M): 37 nM
- IC50 (Plasmodium falciparum [4]): 5100 nM
- GI50 (SF-268): 65 nM
- GI50 (SK-MEL-2): 62 nM
- GI50 (CCRF-CEM): 18 nM
- GI50 (HL-60): < 10 nM
- GI50 (SK-MEL-28): 16300 nM
- selectivity ratio [5]: > 21
